In article PMC6887851, “A Chemical-Intervention Strategy To Circumvent Peptide Hydrolysis by D-Stereoselective Peptidases” (Journal of Medicinal Chemistry, 2019):
Where a SMILES comes first, the peptide text is derived from it. [ ]: non-standard residue; d: D form. The star is where a group is joined. dDab = NCC[C@@H](N)C(=O)O; Octanoyl = CCCCCCCC(=O)*; Dab = NCC[C@H](N)C(=O)O

How the values were obtained:
S. aureus NCTC 10788 = type: cell-based, Staphylococcus aureus; conditions: NCTC 10788, 18 h
Experimental: (§1) Minimum inhibitory concentrations (MICs) were determined according to Clinical and Standards Laboratory Institute (CLSI) guidelines. Briefly, peptides were dissolved in Muller–Hinton broth (MHB) and serial dilutions made across a 96-well plate. Each well was inoculated with a suspension of the required bacterial strain to reach a final inoculum of 5 × 10^5 colony forming units per mL. The MIC was taken as the lowest concentration with no visible (cloudy suspension) growth after 18 h. The antimicrobial activity of each peptide was determined in duplicate in three independent experiments and found to be consistent across all experiments.

D-peptidase BogQ = experiment: Peptide hydrolysis assay with BogQ (UPLC–MS cleavage ratio); type: in vitro ADME; conditions: BogQ 20 nM, substrate 50 μM, 25% PBS buffer pH 7.4, 37 °C, end-point after 1 h incubation, cleavage ratio by UPLC–MS, two independent experiments
Experimental: (§2) For expression of D-peptidases, the recombinant strain E. coli BL21 carrying pET-28a-bogQ or pET-24a-triFpep was cultured overnight at 37 °C in LB medium. This was diluted 1:100 into 100 mL of LB medium containing 50 μg/mL kanamycin and incubated at 37 °C until OD600 = 0.4–0.6 was reached. The culture was incubated at 15 °C for 30 min, and isopropyl β-D-1-thiogalactopyranoside was added to a final concentration of 200 μM.[17] The target proteins purified using Ni-NTA purification. The assay mixture (total volume 30 μL in 25% PBS buffer, pH 7.4), containing purified protein (BogQ, 20 nM or TriFpep 200 nM) and synthetic analogues (50 μM), was incubated for 1 h (BogQ) or 24 h (TriFpep) at 37 °C. Reactions were quenched with three volumes of cold methanol (90 μL) and centrifuged at 15 000 rpm for 10 min to precipitate protein. The supernatant (2 μL) was subjected to UPLC–MS analysis for the determination of cleavage ratios.[17] Assays were repeated in two independent experiments and results consistent across both.

[1] = tested on: TriFpep (peptidase domain of D-peptidase TriF); experiment: Peptide hydrolysis assay with TriFpep (UPLC–MS cleavage ratio); type: in vitro ADME, Paenibacillus polymyxa CICC10580; conditions: Paenibacillus polymyxa; TriFpep 200 nM, substrate 50 μM, 25% PBS buffer pH 7.4, 37 °C, end-point after 24 h incubation, cleavage ratio by UPLC–MS, two independent experiments
Experimental: Having determined that N- or α-methylation of position 9 in the tridecaptins substantially improves resistance to hydrolysis by BogQ, we next tested if modifying the 6 position could overcome TriF hydrolysis at D-Trp5. TriFpep, the soluble periplasmic peptidase domain of TriF, was used in these assays. […] Oct-TriA2(6-Sar) (20) and Oct-TriA2(6-Aib) (21) were synthesized and found to be completely resistant to TriF and retain strong activity (3.13 μg/mL) against E. coli. […] Discovering that a simple substitution of Ser6 with Sar or Aib provides complete TriF resistance with negligible loss in activity is a welcome development.
as §2, with “Reactions were quenched with three volumes of cold methanol (90 μL) and centrifuged at 15 000 rpm for 10 min to precipitate protein. The supernatant (2 μL) was subjected to UPLC–MS analysis for the determination of cleavage ratios.[17] Assays were repeated in two independent experiments and results consistent across both.” left out

E. coli NCTC 12241 = type: cell-based, Escherichia coli; conditions: NCTC 12241, 18 h
Experimental: as §1

Row | SMILES | MIC (μg/mL) Sa (S. aureus NCTC 10788) | metabolised at 1 h, 50 μM (D-peptidase BogQ) | metabolised at 24 h [1] | MIC (μg/mL) Ec (E. coli NCTC 12241)
1 | CCCCCCCC(=O)N[C@@H](C(=O)N[C@H](CCN)C(=O)NCC(=O)N[C@H](CO)C(=O)N[C@H](Cc1c[nH]c2ccccc12)C(=O)N[C@@H](CO)C(=O)N[C@@H](CCN)C(=O)N[C@H](CCN)C(=O)NC(C)(Cc1ccccc1)C(=O)N[C@@H](CCC(=O)O)C(=O)N[C@H](C(=O)N[C@@H](C(=O)N[C@@H](C)C(=O)O)C(C)C)C(C)C)C(C)C (some centres unmarked) [compound 16, Oct-TriA2 (9-αMePhe)] | >50 µg/mL | 39% | – | –
2 | CCCCCCCC(=O)N[C@@H](C(=O)N[C@@H](CCN)C(=O)NCC(=O)N[C@H](CO)C(=O)N[C@H](Cc1c[nH]c2ccccc12)C(=O)N[C@@H](CO)C(=O)N[C@@H](CCN)C(=O)N[C@H](CCN)C(=O)N[C@@H](Cc1ccccc1)C(=O)N[C@@H](CCC(=O)O)C(=O)N[C@H](C(=O)N[C@@H](C(=O)N[C@@H](C)C(=O)O)C(C)C)C(C)C)C(C)C [compound 14, Oct-TriA2 (2-Dab)] (Octanoyl-[dV][Dab]G[dS][dW]S[Dab][dDab]FEV[dV]A-OH) | >50 µg/mL | – | – | –
3 | CCCCCCCC(=O)N[C@@H](C(=O)N[C@H](CCN)C(=O)NCC(=O)N[C@H](CO)C(=O)N[C@H](Cc1c[nH]c2ccccc12)C(=O)N(C)CC(=O)N[C@@H](CCN)C(=O)N[C@H](CCN)C(=O)NC(C)(Cc1ccccc1)C(=O)N[C@@H](CCC(=O)O)C(=O)N[C@H](C(=O)N[C@@H](C(=O)N[C@@H](C)C(=O)O)C(C)C)C(C)C)C(C)C (some centres unmarked) [compound 23, Oct-TriA2 (6-Sar, 9-αMePhe)] | >50 µg/mL | 39% | 0% | >50 µg/mL
4 | CCCCCCCC(=O)N[C@@H](C(=O)N[C@H](CCN)C(=O)NCC(=O)N[C@H](CO)C(=O)N[C@H](Cc1c[nH]c2ccccc12)C(=O)N(C)CC(=O)N[C@@H](CCN)C(=O)N[C@H](CCN)C(=O)NC(C)(Cc1ccccc1)C(=O)N[C@@H](CCC(=O)O)C(=O)N[C@H](C(=O)N[C@@H](C(=O)N[C@@H](C)C(=O)O)[C@@H](C)CC)C(C)C)C(C)C (some centres unmarked) [compound 25, Oct-TriA2 (6-Sar, 9-αMePhe)] | >50 µg/mL | 40% | 0% | >50 µg/mL
